Activity and Stability data for 2 molecules are collected here from ChEMBL document CHEMBL3351545, “Development of photo-controllable hydrogen sulfide donor applicable in live cells” (Bioorg Med Chem Lett, 2015).

Active and inactive are the calls of the source. No cut-off for these calls is given here.

The subject of data set [1] is HEK293. Nature of the data set: Cytotoxicity against HEK293 cells at 1 to 30 uM using acetoxymethylated compound after 2 days by MTT assay. It is filed as cell-based. As to conditions: human, hek293, 48 h. For orientation: Formazan colour is commonly taken as a measure of viable cells.
Data set [2] in a line: Induction of H2S release in phosphate buffer at 100 uM at pH 7.4 UV-irrdiated for 300 secs by fluorescence assay relative to control. It is filed as physicochemical. To be noted: pH 7.4, 5 min.
Data set [3] is described as follows: Induction of H2S release in phosphate buffer at 100 uM at pH 7.4 followed by UV-irrdiation by methylene-blue assay. The format is physicochemical. To be noted: pH 7.4, 100 µM, TDE = time-dependent effect.
A short description of data set [4]: Stability of the compound in phosphate buffer at 100 uM at pH 7.4 under dark condition after 1 month by HPLC analysis. The format is physicochemical. To be noted: pH 7.4, 730.5 h.
Data set [5] relates to HEK293. Description: Induction of H2S release in HEK293 cells at 100 uM using acetoxymethylated compound incubated for 30 mins followed by UV photoirradiation for 5 mins by fluorescence microscopic analysis. It is filed as functional, cell-based. As to conditions: Homo sapiens.
The subject of data set [6] is HEK293. Nature of the data set: Induction of H2S release in HEK293 cells at 100 uM incubated for 30 mins followed by UV photo-irradiation for 5 mins by fluorescence microscopic analysis. To be noted: Homo sapiens. It is filed as functional, cell-based.
A short description of data set [7]: Induction of H2S release in phosphate buffer at 100 uM at pH 7.4 UV-irrdiated for 400 secs by methylene-blue assay. As to conditions: pH 7.4, 0.111111 h. It is filed as physicochemical.

`CC(CSCC(C)(C(=O)O)c1ccc2oc3ccccc3c(=O)c2c1)(C(=O)O)c1ccc2oc3ccccc3c(=O)c2c1` (configuration not stated): the Activity result in the data set with HEK293 [1] is recorded as “Non-toxic”; in data set [2], “Active”; in data set [3], “tde”. Moreover, the Stability entry in data set [4] is “Stable”. Also, in the data set with HEK293 [5], the outcome was Active.

As for `CC(CSCC(C)(C(=O)O)c1cccc(C(=O)c2ccccc2)c1)(C(=O)O)c1cccc(C(=O)c2ccccc2)c1` (configuration not stated), the outcome with HEK293 [6] was inactive. This molecule registered an Activity in data set [7] of 15 µM.
